{"source": "patent US20080171716A1", "about": "“NUCLEIC ACID MODULATION OF TOLL-LIKE RECEPTOR-MEDIATED IMMUNE STIMULATION” (Protiva Biotherapeutics, Inc., priority 2006, published 2008)", "biological_target": "T1, TLR9 (Mus musculus, UniProt Q9EQU3)", "T1 construct": "endogenous in cells; host or cells: Flt3L-derived dendritic cells cultured from bone marrow of female Balb/C mice", "T1 sequence (Q9EQU3 26-1032)": "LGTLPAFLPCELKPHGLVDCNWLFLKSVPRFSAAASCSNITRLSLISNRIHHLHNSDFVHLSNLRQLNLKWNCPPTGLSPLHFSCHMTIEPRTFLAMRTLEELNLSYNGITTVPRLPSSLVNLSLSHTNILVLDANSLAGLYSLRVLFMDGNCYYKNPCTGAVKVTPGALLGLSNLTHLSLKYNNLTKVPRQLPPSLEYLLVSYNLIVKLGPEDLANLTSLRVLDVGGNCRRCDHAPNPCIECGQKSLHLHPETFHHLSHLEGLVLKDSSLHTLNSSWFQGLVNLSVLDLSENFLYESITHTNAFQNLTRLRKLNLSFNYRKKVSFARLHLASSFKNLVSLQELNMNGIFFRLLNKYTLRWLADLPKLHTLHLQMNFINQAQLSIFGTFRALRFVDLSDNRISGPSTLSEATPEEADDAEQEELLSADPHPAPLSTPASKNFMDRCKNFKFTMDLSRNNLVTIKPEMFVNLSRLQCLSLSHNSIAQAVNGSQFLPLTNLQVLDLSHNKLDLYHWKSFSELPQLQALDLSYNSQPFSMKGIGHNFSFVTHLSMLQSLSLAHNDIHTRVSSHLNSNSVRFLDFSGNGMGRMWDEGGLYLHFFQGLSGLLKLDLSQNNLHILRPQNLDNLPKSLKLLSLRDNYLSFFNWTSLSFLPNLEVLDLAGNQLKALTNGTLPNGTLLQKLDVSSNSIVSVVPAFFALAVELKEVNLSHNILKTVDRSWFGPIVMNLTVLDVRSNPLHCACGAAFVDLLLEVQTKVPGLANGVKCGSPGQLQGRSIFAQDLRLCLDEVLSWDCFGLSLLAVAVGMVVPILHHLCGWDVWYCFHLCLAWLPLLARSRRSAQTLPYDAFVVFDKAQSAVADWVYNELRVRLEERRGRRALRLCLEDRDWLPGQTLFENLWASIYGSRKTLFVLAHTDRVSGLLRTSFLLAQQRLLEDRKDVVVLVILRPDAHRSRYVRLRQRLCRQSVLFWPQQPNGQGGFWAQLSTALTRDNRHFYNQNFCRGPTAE", "assay": "CpG ODN (TLR9 agonist)-induced IFN-α in murine Flt3L-derived dendritic cells", "format": "cell-based", "conditions": "murine Flt3L DC; 1:1 molar ratio", "procedure": "Lipid Encapsulation of RNA and ODN. RNA or ODN were encapsulated in liposomes by a process of spontaneous vesicle formation as described in Judge et al., supra, and Jeffs et al., Pharm. Res., 22:362-372 (2005).\nFlt3L-derived dendritic cells (DC) were generated as described in Gilliet et al., J. Exp. Med., 195:953-958 (2002), using 100 ng/ml murine Flt3-ligand (Peprotech) supplemented media. Femurs and tibiae of female Balb/C mice were isolated and rinsed in sterile PBS. The ends of bones were cut and marrow harvested in complete media (RPMI 1640, 10% heat inactivated FBS, 1% penicillin/streptomycin, 2 mM L-glutamine, 1 mM sodium pyruvate, 25 mM HEPES, 50 μM 2-mercaptoethanol). Bone marrow cells were passed through a 70 μm strainer and centrifuged at 1000 rpm for 7 min. and resuspended in complete media supplemented with 100 ng/ml murine Flt3L to 2×10^6 cells/ml. 2 ml of cells were seeded in 6-well plates and 1 ml fresh media was added every two to three days. On day 9 of culture, non-adherent cells were washed in complete media and plated into 96-well plates at concentrations ranging from 0.5 to 2.5×10^5 cells/well.\nLoxoribine (InvivoGen; San Diego, Calif.), polyIC (Sigma-Aldrich; St. Louis, Mo.), and formulated nucleic acids were diluted in PBS and added to either human PBMC or Flt3L DC cultures. Cells were incubated 24 h at 37° C. before supernatants were assayed for cytokines by ELISA.\nCytokine ELISA. All cytokines were quantified using sandwich ELISA kits according to the manufacturer's instructions. These were mouse and human IFN-α (PBL Biomedical; Piscataway, N.J.) and IL-6 (eBioscience; San Diego, Calif.)."}
{"substance": "polyUmod21: 2′OMe-uridine homopolymer of 21 nucleotides in length (UUUUUUUUUUUUUUUUUUUUU; all 2'-O-methyl, backbone not given here)", "values": [{"measurement": "level of IFN-α induction by Type B ODN (1826) when co-formulated", "value": "no inhibitory effect"}, {"measurement": "level of IFN-α induction by Type C ODN (M362) when co-formulated", "value": "no inhibitory effect"}]}
